Source: US20100190716A1, “USE OF A PLATELET FIBRINOGEN RECEPTOR HEXAPEPTIDE ANTAGONIST AND ALPHA-ENDORPHIN AS THERAPEUTIC AGENTS” (priority 2007, published 2010)
Where no end group is shown, it is not given here. [ ]: non-standard residue; d: D form. Hyp = O=C(O)[C@@H]1C[C@@H](O)CN1

Tests used:
HIV-1IIIB = assay: HIV-1 antiviral assay in CEM-SS cells (MTS readout); details: positive controls
HCMV strain AD169 = assay: HCMV plaque formation assay in MRC-5 cells; details: for inhibition of HCMV plaque formation compared to virus control: 10 micrograms per ml, 7-10 days
[1] = tested on: hepatitis B virus (HBV) ayw strain; assay: HBV experimental assay system, secreted HBV DNA by TaqMan PCR in HepG2-2.2.15; assay type: cell-based; details: 10 micrograms per ml, HepG2-2.2.15, 6 days
[2] = tested on: Tumor Necrosis Factor-α (TNF-α); assay: Th1/Th2 cytokine profiling assay, TNF-α; assay type: cell-based, mouse; details: 10 micrograms per ml; Ovalbumin-restimulated Balb/c spleen cells, 72 hours
Excerpt: (§1) The Balb/c mice (originated in 1923, it is a popular strain and is used in many different research disciplines. Also classified as an inbred from the production of 20 or more successive brother-sister matings, the Balb/c mouse is albino and small in size) were immunized on Days 1, 15, and 29 with Ovalbumin (Ovalbumin is the main protein found in egg white, commonly used to stimulate an immunological reaction in test animals) in PBS (5 micrograms/injection). On day 50, spleens of the mice were harvested (3 weeks after last boost with Ovalbumin). […] Thereafter, additional Ovalbumin was added to the cells at 10 micrograms/ml for in vitro restimulation of the cells. 72 hours later, cell supernatants were harvested and assayed using the Becton Dickinson Mouse Th1/Th2 Cytokine CBA Kit. This kit can be used to measure Interleukin-2 (IL-2), Interleukin-4 (IL-4), Interleukin-5 (IL-5), Interferon-γ (IFN-γ), and Tumor Necrosis Factor-α (TNF-α) protein levels in a single sample. The kit performance has been optimized for analysis of physiologically relevant concentrations ([…] levels) of specific cytokine proteins in tissue culture supernatants and serum samples.

Interleukin-4 (IL-4) = assay: Th1/Th2 cytokine profiling assay, IL-4; assay type: cell-based, mouse; details: 10 micrograms per ml; Ovalbumin-restimulated Balb/c spleen cells, 72 hours
Excerpt: as §1

[3] = tested on: Human Peripheral Blood Mononuclear Cells (PBMC), B cell proliferation; assay: B cell proliferation assay (SAC plus Interleukin-2 stimulated PBMC, 3H-thymidine); assay type: cell-based; details: 10 micrograms per ml; SAC plus IL-2 stimulated PBMC
Procedure: Human Peripheral Blood Mononuclear Cells (PBMC) were obtained from normal human donors. The B cell proliferation was induced by stimulation of the cells with the B cell mitogen Staphylococcus aureus Cowans I (SAC) plus Interleukin-2, either in the absence (positive proliferation control), or in the presence of test peptides—10 micrograms per ml—to examine their effects on the B cell response. 10^5/well PBMC were plated in 96-well microtiter plates and assayed in duplicate with the peptides. Cell cultures were incubated at 37° C. for 3 days in a 5% CO2 incubator and were thereafter pulsed with 1 microCi/well ^3H-thymidine for additional 12 hours of culture. At the end of incubation time, the plates were harvested and the cells counted by liquid scintillation for the incorporation of ^3H-thymidine as a measure of B cell proliferation.

HUVEC = assay: Endothelial tube formation assay; assay type: cell-based, human; details: 10 micrograms per ml, 20 hours
Procedure: The endothelial tube formation assay is based on the ability of endothelial cells to form three-dimensional capillary-like tubular structures when cultured on a gel of basement membrane extract. The endothelial tube formation assay represents a powerful model for studying inhibition and induction of angiogenesis. Pre-labeled HUVEC with Calcein AM were seeded in a 96-well culture plate coated with extracellular metrix (Chemicon international Cat. ECM625) and treated with test peptides—10 micrograms per ml—in full growth medium. Positive control was vehicle only. The endothelial cells were allowed to form tubes foe 20 hours and were then examined under an inverted fluorescent microscope. Duplicate wells for each treatment were photographed and quantitatively analyzed for an average tubule length using image analysis software ImageProPlus. Raw data were expressed as average tubule lengths in pixels ±standard deviation. Statistic p values were computed using the Student's t-test.

Interleukin-5 (IL-5) = assay: Th1/Th2 cytokine profiling assay, IL-5; assay type: cell-based, mouse; details: 10 micrograms per ml; Ovalbumin-restimulated Balb/c spleen cells, 72 hours
Excerpt: as §1

[4] = tested on: Primary Human endothelial cells (HUVEC); assay: Endothelial cell migration assay; assay type: cell-based; details: 10 micrograms per ml, 22 hours
Procedure: Endothelial cell migration is a prerequisite for the process of neo-vascularization or angiogenesis which is crucial for on-site recruitment of blood vessel formation. Primary Human endothelial cells (HUVEC) were seeded in insert chambers with 3 micrometer pore size of multi-transwell plate for 6 hours at 37° C. in Endothelial Cell Basal Medium (EBM) supplemented with 0.1% bovine serum albumin. Thereafter, designated concentration of testing peptides—10 micrograms per ml—was added in duplicate wells. The endothelia were allowed to migrate for 22 hours at 37° C., then, migrated cells were fixed and stained with Hoechst 33342 dye. Images of 3 fields per insert were taken and the number of migrated cells per field were quantified using the ImageProPlus software. Data were analyzed for the average number of the migrated cells and standard deviation of six data points for each treatment condition. Active test peptides against HUVEC migration was determined based on 50% inhibition of migrated cells as compared with the control. Statistic p values were computed using the Student's t-test.

Interleukin-2 (IL-2) = assay: Th1/Th2 cytokine profiling assay, IL-2; assay type: cell-based, mouse; details: 10 micrograms per ml; Ovalbumin-restimulated Balb/c spleen cells, 72 hours
Excerpt: as §1

Interferon-γ (IFN-γ) = assay: Th1/Th2 cytokine profiling assay, IFN-γ; assay type: cell-based, mouse; details: 10 micrograms per ml; Ovalbumin-restimulated Balb/c spleen cells, 72 hours
Excerpt: as §1

## Cc1cn([C@H]2C[C@H](N=[N+]=[N-])[C@@H](CO)O2)c(=O)[nH]c1=O [AZT]
HIV-1IIIB
  antiviral activity of positive control compounds: expected levels of antiviral activity

## Nc1nc(O)c2ncn(COC(CO)CO)c2n1 [Ganciclovir, reference compound]
HCMV strain AD169; positive control, HCMV AD169
  antiviral activity of positive control compound: expected levels of antiviral activity

## CC(C)(C)NC(=O)[C@@H]1CN(Cc2cccnc2)CCN1C[C@@H](O)C[C@@H](Cc1ccccc1)C(=O)N[C@H]1c2ccccc2C[C@H]1O [indinavir]
HIV-1IIIB
  antiviral activity of positive control compounds: expected levels of antiviral activity

## PS[Hyp]GDW-OH [peptide 1]
[1]
  inhibition of HBV replication on tested liver cells: no effect
[2]
  TNF-a spleen cells; TH1 response (% of control): 96.0 % of control
Interleukin-4 (IL-4)
  IL-4 spleen cells; TH2 response (% of control): 0.0 % of control
[3]
  decrease of the proliferation of specifically stimulated human B-cells: 20.9%
HUVEC
  inhibition of the tube formation of human endothelial cells: did not inhibit
HCMV strain AD169
  inhibition of HCMV plaque formation compared to virus control: did not inhibit
Interleukin-5 (IL-5)
  IL-5 spleen cells; TH2 response (% of control): 65.5 % of control
[4]
  inhibition of the migration of human endothelial cells: 39%
Interleukin-2 (IL-2)
  IL-2 spleen cells (% of control): 117.9 % of control
Interferon-γ (IFN-γ)
  IFNγ spleen cells; TH1 response (% of control): 63.7 % of control

## Tyr-Gly-Gly-Phe-Met-Thr-Ser-Glu-Lys-Ser-Gln-Thr-Pro-Leu-Val-Thr-OH (YGGFMTSEKSQTPLVT-OH) [peptide 2, Alpha-Endorphin]
[1]
  inhibition of HBV replication on tested liver cells: no effect
[2]
  TNF-a spleen cells; TH1 response (% of control): 93.1 % of control
Interleukin-4 (IL-4)
  IL-4 spleen cells; TH2 response (% of control): 0.0 % of control
[3]
  decrease of the proliferation of specifically stimulated human B-cells: 12.0%
HUVEC
  inhibition of the tube formation of human endothelial cells: did not inhibit
HCMV strain AD169
  inhibition of HCMV plaque formation compared to virus control: did not inhibit
Interleukin-5 (IL-5)
  IL-5 spleen cells; TH2 response (% of control): 53.0 % of control
[4]
  inhibition of the migration of human endothelial cells: 31%
Interleukin-2 (IL-2)
  IL-2 spleen cells (% of control): 0.0 % of control
Interferon-γ (IFN-γ)
  IFNγ spleen cells; TH1 response (% of control): 68.6 % of control
